Source: PMC9007462 (Journal of Medicinal Chemistry, 2022)

How the values were obtained:
[1] = molecular target: T1, Human ALDH1A1 (Homo sapiens, UniProt P00352); assay: Inhibition screening, single point at 10 μM, ALDH1A1; type: biochemical; details: 10 μM compound; 5 μM hexanal (Figure S1)
T1 construct: made in house
T1 sequence (P00352 1-501): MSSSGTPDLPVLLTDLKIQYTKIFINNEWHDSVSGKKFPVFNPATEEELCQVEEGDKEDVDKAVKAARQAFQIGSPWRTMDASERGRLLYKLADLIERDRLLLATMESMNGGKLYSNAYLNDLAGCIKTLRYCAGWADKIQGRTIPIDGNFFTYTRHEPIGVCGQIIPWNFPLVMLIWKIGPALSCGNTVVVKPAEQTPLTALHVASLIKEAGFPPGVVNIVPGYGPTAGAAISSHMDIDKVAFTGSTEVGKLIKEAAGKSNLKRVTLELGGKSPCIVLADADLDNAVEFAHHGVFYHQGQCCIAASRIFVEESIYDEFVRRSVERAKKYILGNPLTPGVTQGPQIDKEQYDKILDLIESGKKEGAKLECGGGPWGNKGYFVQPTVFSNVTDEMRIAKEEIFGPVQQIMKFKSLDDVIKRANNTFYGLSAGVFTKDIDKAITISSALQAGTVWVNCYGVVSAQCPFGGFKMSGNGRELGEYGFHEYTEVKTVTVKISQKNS
Method: (§1) Human ALDH1A1, ALDH1A3, and ALDH3A1 were cloned and recombinantly expressed from the pET-30 Xa/LIC vector. Protein purification was achieved by affinity chromatography on a nickel-charged chelating Sepharose Fast Flow 5-mL column (His Trap column, Cytiva), which specifically binds the protein due to its N-terminal (His)6 tag, using an ÄKTA FPLC system (Cytiva), as previously described.[55] Enzymes including the His tag were stored at −80 °C in 20 mM Tris/HCl and 0.5 M NaCl, pH 8.0, until use. Reaction buffers were as follows: ALDH1A1 was assayed in 50 mM HEPES, 0.5 mM EDTA, and 0.5 mM DTT, pH 8.0; ALDH1A3 was assayed in 50 mM HEPES, 30 mM MgCl2, and 5 mM DTT, pH 8.0; and ALDH3A1 was assayed in 50 mM Tris–HCl and 5 mM DTT, pH 8.0. Activity under standard conditions was measured fluorimetrically at 25 °C using a Cary Eclipse (Varian) fluorimeter to follow the purification procedure and to check the enzyme concentration before each kinetic experiment. The fluorescence of NADH was characterized at 460 nm with excitation at 340 nm, and 5 μM NAD(P)H was added as an internal standard to obtain the absolute reaction rates.[55] Standard activity was measured at saturating concentrations of substrate using 30 μM hexanal (ALDH1A1), 250 μM hexanal (ALDH1A3), or 250 μM 4-NBA (ALDH3A1). NAD^+ was 500 μM for ALDH1A1 and ALDH1A3, and NADP^+ was 1 mM for ALDH3A1.
All compounds tested were dissolved in DMSO and assayed at a final concentration of 1% (v/v) DMSO. […] For the initial screening, the enzymatic activity was measured in 96-well plates (final volume of 200 μL) in a Victor 3 Multilabel Plate Reader (Perkin Elmer), by monitoring the fluorescence of the NAD(P)H produced during the reaction (excitation at 340 nm and emission at 460 nm). Alternatively, the enzymatic activity was measured in a Varian Cary 400 UV–vis spectrophotometer, by monitoring the increase in the absorbance of NAD(P)H at 340 nm (ε = 6.22 mM^–1·cm^–1) or in a Cary Eclipse Varian fluorimeter, as described above. […] For ALDH1A1, 5 μM hexanal (Sigma) was used. For ALDH1A3, 10 and 250 μM hexanal (Sigma) were used. For ALDH3A1, 4-NBA (Sigma) was used at 31 and 250 μM. All substrates were prepared in the corresponding assay buffer at a concentration of 2 mM and further diluted to reach the final concentrations required per experiment. The concentration of the enzyme was kept from 50- to 100-fold lower than that of the substrate for all enzymatic assays.

[2] = tested on: PC3; assay: MTT chemosensitivity assay, PC3; type: cell-based, human; details: Homo sapiens, PC-3, 96 h exposure, ± SD, at least three independent experiments
Method: (§2) MTT (3-(4, 5-dimethyl-2-thiazolyl)-2, 5-diphenyl-2H-tetrazolium bromide) assay was used to determine cell viability.[64] Immortalized PCa cells (PC-3, Du-145, and LNCaP) were seeded in 96-well plates and allowed to adhere overnight at 37 °C, 5% CO2, and 100% humidity. […] After 96 h of exposure, 200 μL of MTT (Sigma) solution (0.5 mg/mL) was added to each well and incubated at 37 °C for 4 h. The formazan crystals were dissolved in DMSO (Sigma), and the absorbance was read using a microplate reader (Multiskan EX; Thermo Fisher Scientific) at 540 nm. Data analysis was performed using Microsoft Excel 2013 and GraphPad Prism software.

[3] = tested on: LNCaP; assay: MTT chemosensitivity assay, LNCaP; type: cell-based, human; details: Homo sapiens, LNCaP, 96 h exposure, ± SD, at least three independent experiments
Method: as §2

[4] = tested on: DU145; assay: MTT chemosensitivity assay, DU145; type: cell-based, human; details: Homo sapiens, DU-145, 96 h exposure, ± SD, at least three independent experiments
Method: as §2

[5] = molecular target: T2, Human ALDH3A1 (Homo sapiens, UniProt P30838); assay: ALDH3A1 inhibition, IC50, Ki and type of inhibition; type: biochemical
T2 construct: made in house
T2 sequence (P30838 1-453): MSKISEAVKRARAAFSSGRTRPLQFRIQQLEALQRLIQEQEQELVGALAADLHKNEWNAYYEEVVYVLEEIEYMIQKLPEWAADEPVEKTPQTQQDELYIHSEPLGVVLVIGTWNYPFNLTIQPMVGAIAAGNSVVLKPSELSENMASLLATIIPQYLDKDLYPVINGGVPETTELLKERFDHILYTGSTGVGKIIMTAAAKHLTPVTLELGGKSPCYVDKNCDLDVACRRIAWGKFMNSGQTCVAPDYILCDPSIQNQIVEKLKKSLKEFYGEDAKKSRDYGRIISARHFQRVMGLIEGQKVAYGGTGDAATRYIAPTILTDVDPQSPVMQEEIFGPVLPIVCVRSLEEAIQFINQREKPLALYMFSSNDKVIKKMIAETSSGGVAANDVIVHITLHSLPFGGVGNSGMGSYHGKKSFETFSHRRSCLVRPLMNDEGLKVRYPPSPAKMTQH
Method: as §1
(§3) In order to determine the IC50 values, reaction rates were determined at various concentrations of inhibitor at a fixed concentration of substrate. As substrates for ALDH1A1, ALDH1A3, and ALDH3A1, 5 μM hexanal, 6 μM hexanal, and 31 μM 4-NBA, respectively, were used. The IC50 values were calculated by nonlinear fitting of the obtained data to a sigmoidal plot using GraFit 5.0 (Erithacus software), with the following 4-parameter equation [drawing 2] , where y is the specific activity, x is the inhibitor concentration, background is the minimum y value, range is the fitted uninhibited value minus the background, and s is the slope factor. Values are expressed as the mean ± SE.
Activity assays to determine the type of inhibition and Ki value were performed using various substrate and inhibitor concentrations maintaining the same conditions as for the IC50 experiments and using GraFit 5.0 for data processing. The data of enzymatic activities at different inhibitor concentrations were fitted to the Michaelis–Menten equation to determine the values of Km and Vmax. Next, results were fitted to the equations for competitive, given by [drawing 3]; noncompetitive, given by [drawing 4]; uncompetitive, given by [drawing 5]; and mixed, given by [drawing 6] .[56] The type of inhibition was selected based on the lowest error value. Parameters were expressed as the mean ± SE.

[6] = molecular target: T1, Human ALDH1A1; assay: DEAB analogues as substrates of ALDH1A1; type: biochemical; details: 10 μM compound as substrate, relative to activity with 10 μM hexanal (Figure S2)
Method: as §1
According to their structure with a carbonyl group, compounds were tested for their substrate properties against ALDH1A1, ALDH1A3, and ALDH3A1. […] Results are expressed as the percentage of activity at 10 μM versus the activity at 10 μM of their standard substrate (hexanal or 4-NBA). Values are expressed as the mean ± SE.

[7] = molecular target: T3, Human ALDH1A3 (Homo sapiens, UniProt P47895); assay: ALDH1A3 inhibition, IC50, Ki and type of inhibition; type: biochemical; details: 6 μM hexanal as substrate; mean ± SE
T3 construct: made in house
T3 sequence (P47895 1-512): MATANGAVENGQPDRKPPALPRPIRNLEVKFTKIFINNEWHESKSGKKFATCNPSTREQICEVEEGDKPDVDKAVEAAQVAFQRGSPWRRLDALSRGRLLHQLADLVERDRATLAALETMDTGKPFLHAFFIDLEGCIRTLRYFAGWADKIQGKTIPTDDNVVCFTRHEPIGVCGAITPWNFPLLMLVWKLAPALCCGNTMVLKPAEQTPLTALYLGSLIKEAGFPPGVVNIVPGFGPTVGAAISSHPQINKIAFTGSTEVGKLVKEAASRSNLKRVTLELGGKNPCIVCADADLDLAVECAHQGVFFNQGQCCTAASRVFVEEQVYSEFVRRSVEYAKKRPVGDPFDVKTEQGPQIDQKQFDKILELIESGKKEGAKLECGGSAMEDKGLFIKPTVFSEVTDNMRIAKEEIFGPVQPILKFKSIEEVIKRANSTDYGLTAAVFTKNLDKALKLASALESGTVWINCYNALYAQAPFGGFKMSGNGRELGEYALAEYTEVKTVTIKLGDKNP
Method: Human ALDH1A1, ALDH1A3, and ALDH3A1 were cloned and recombinantly expressed from the pET-30 Xa/LIC vector. Protein purification was achieved by affinity chromatography on a nickel-charged chelating Sepharose Fast Flow 5-mL column (His Trap column, Cytiva), which specifically binds the protein due to its N-terminal (His)6 tag, using an ÄKTA FPLC system (Cytiva), as previously described.[55] Enzymes including the His tag were stored at −80 °C in 20 mM Tris/HCl and 0.5 M NaCl, pH 8.0, until use. Reaction buffers were as follows: ALDH1A1 was assayed in 50 mM HEPES, 0.5 mM EDTA, and 0.5 mM DTT, pH 8.0; […] Activity under standard conditions was measured fluorimetrically at 25 °C using a Cary Eclipse (Varian) fluorimeter to follow the purification procedure and to check the enzyme concentration before each kinetic experiment. […] In order to determine the IC50 values, reaction rates were determined at various concentrations of inhibitor at a fixed concentration of substrate. […] Values are expressed as the mean ± SE. […] The data of enzymatic activities at different inhibitor concentrations were fitted to the Michaelis–Menten equation to determine the values of Km and Vmax. Next, results were fitted to the equations for competitive, given by [drawing 3]; noncompetitive, given by [drawing 4]; uncompetitive, given by [drawing 5]; and mixed, given by [drawing 6] .[56] The type of inhibition was selected based on the lowest error value. Parameters were expressed as the mean ± SE.

[8] = molecular target: T1, Human ALDH1A1; assay: ALDH1A1 inhibition, IC50 determination; type: biochemical; details: 5 μM hexanal as substrate; mean ± SE
Method: as §1, §3

[9] = molecular target: T3, Human ALDH1A3; assay: Inhibition screening, single point at 10 μM, ALDH1A3; type: biochemical; details: 10 μM compound; hexanal as substrate (Figure S1)
Method: as §1, with “Reaction buffers were as follows: ALDH1A1 was assayed in 50 mM HEPES, 0.5 mM EDTA, and 0.5 mM DTT, pH 8.0; ALDH1A3 was assayed in 50 mM HEPES, 30 mM MgCl2, and 5 mM DTT, pH 8.0; and ALDH3A1 was assayed in 50 mM Tris–HCl and 5 mM DTT, pH 8.0.” left out, “NAD^+ was 500 μM for ALDH1A1 and ALDH1A3, and NADP^+ was 1 mM for ALDH3A1.” left out
All compounds tested were dissolved in DMSO and assayed at a final concentration of 1% (v/v) DMSO. […] Alternatively, the enzymatic activity was measured in a Varian Cary 400 UV–vis spectrophotometer, by monitoring the increase in the absorbance of NAD(P)H at 340 nm (ε = 6.22 mM^–1·cm^–1) or in a Cary Eclipse Varian fluorimeter, as described above. […]

| SMILES | remaining ALDH1A1 activity [1] [%] | IC50 [2] [µM] | IC50 [3] [µM] | IC50 [4] [µM] | IC50 ([5]; 31 μM 4-NBA as substrate, mean ± SE) [µM] | type of inhibition ALDH3A1 ([5]; 4-NBA as substrate) | Ki ([5]; 4-NBA as substrate, fit to competitive inhibition equation, mean ± SE) [µM] | ALDH1A1 substrate activity [6] [%] | IC50 [7] [µM] | IC50 [8] [µM] | remaining ALDH1A3 activity [9] [%] |
| --- | --- | --- | --- | --- | --- | --- | --- | --- | --- | --- | --- |
| CCCN(CCC)c1ccc(C=O)cc1 [Compound 1, 4-(Dipropylamino)benzaldehyde] | 12 | > 200 | 73 ± 14 | 190 ± 25 |  |  |  |  |  |  |  |
| CCN(CC)c1ccc(C=O)cc1[N+](=O)[O-] [Compound 19, 4-(Diethylamino)-3-Nitrobenzaldehyde] |  | > 200 | 136 ± 13 | > 200 | 1.29 ± 0.15 | competitive | 0.24 ± 0.04 | 69 |  |  |  |
| O=Cc1ccc(N2CCCC2)c(Cl)c1 [Compound 12, 3-Chloro-4-(pyrrolidin-1-yl)benzaldehyde] | 17 |  |  |  |  |  |  |  | 0.31 ± 0.03 |  |  |
| COc1cc(C=O)ccc1N1CCCC1 [Compound 29, 3-Methoxy-4-(pyrrolidin-1-yl)benzaldehyde] |  |  |  |  |  |  |  |  | 4.86 ± 0.81 | 0.88 ± 0.05 |  |
| CCN(CC)c1ccc(C=O)cc1Br [Compound 13, 3-Bromo-4-(diethylamino)benzaldehyde] | 24 | 166 ± 41 | 47 ± 0.6 | 123 ± 12 |  |  |  | ~60 | 10.7 ± 1.3 |  |  |
| Cc1cc(C=O)ccc1N1CCOCC1 [Compound 27, 3-Methyl-4-morpholinobenzaldehyde] |  |  |  |  |  |  |  |  |  |  | 10 |
| Cc1cc(C=O)ccc1N1CCCC1 [Compound 26, 3-Methyl-4-(pyrrolidin-1-yl)benzaldehyde] |  | > 200 | 172 ± 8 | > 200 |  |  |  |  | 1.15 ± 0.15 | 0.8 ± 0.16 |  |
